Data set [1] concerns B. subtilis. The data set is described as follows: Tube dilution MIC. The conditions noted are these: Bacillus subtilis, 24 h, read-out: MIC B. subtilis.
Data set [2] concerns S. typhi. The data set is described as follows: MBC by subculturing. It is filed as cell-based. Particulars: Salmonella enterica, read-out: MBC S. typhi. Put shortly:
(§1)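 Subculture: 100 µl from clear MIC tubes → fresh agar plates; incubate; visual growth check. MBC/MFC read from plates.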

Data set [3] has as its system S. aureus. Nature of the data set: MBC by subculturing. The conditions noted are these: Staphylococcus aureus. The class given is cell-based. Put shortly: as §1
Data set [4] relates to B. subtilis. Nature of the data set: MBC by subculturing. Particulars: Bacillus subtilis, read-out: MBC B. subtilis. The class given is cell-based. Summed up: as §1
For data set [5], the system named is B. cereus. Nature of the data set: MBC by subculturing. It is filed as cell-based. Particulars: Bacillus cereus, read-out: MBC B. cereus. Summed up:
as §1

Data set [6] has as its system E. coli. Nature of the data set: MBC by subculturing. The class given is cell-based. The conditions noted are these: Escherichia coli. Put shortly: as §1
Data set [7] deals with S. typhi. The data set is described as follows: Tube dilution MIC. The class given is cell-based. The conditions noted are these: Salmonella enterica, 24 h, read-out: MIC S. typhi.
In data set [8] the test system is MCF7 (human breast cancer) cell line. The data set is described as follows: Sulforhodamine-B (SRB) cytotoxicity assay. The class given is cell-based. The conditions noted are these: MCF7, read-out: IC50 MCF7.
The subject of data set [9] is M. tuberculosis H37Rv. Nature of the data set: MIC by microplate alamar blue assay. The class given is cell-based. The conditions noted are these: Mycobacterium tuberculosis, NA = no activity, read-out: MIC against M. tuberculosis H37Rv.
Data set [10] deals with M. tuberculosis H37Rv (NCFT/TB/537). The data set is described as follows: Well diffusion susceptibility test (zone of inhibition). The class given is cell-based. The conditions noted are these: Mycobacterium tuberculosis, 672 h, read-out: Diameter of zone of inhibition against H37Rv (NCFT/TB/537), wells of 8 mm, 50 µg/ml test compound, 25 µg/ml standard drug, 4 weeks, NA = no activity.

A short description of data set [11]: In vivo LD50, ED50 and toxic dose in mice models. The conditions noted are these: mouse, dose that killed 50% of the mice population within the group. Put shortly:
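LD50 and ED50 determined for test compounds in mice infected with Mycobacterium tuberculosis H37Rv.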

Data set [12] has as its system S. aureus. The data set is described as follows: Tube dilution MIC. Particulars: Staphylococcus aureus, 24 h, read-out: MIC S. aureus.
Data set [13] concerns HCT116 (human colorectal) cell line. The data set is described as follows: Sulforhodamine-B (SRB) cytotoxicity assay. The class given is cell-based. The conditions noted are these: HCT-116, read-out: IC50 HCT116.
Data set [14] deals with C. albicans. Nature of the data set: microbe, parasite or virus in culture. Particulars: Candida albicans, 48 h, read-out: MIC C. albicans.
For data set [15], the system named is M. tuberculosis H37Rv. Nature of the data set: Minimum lethal concentration (MLC). The class given is cell-based. The conditions noted are these: Mycobacterium tuberculosis, NA = no activity, read-out: MLC against M. tuberculosis H37Rv.
In data set [16] the test system is Gram positive as well as Gram negative bacterial species. The data set is described as follows: Tube dilution MIC, bacteria overall. It is filed as cell-based.
In data set [17] the target is mycobacterial isocitrate lyase (Mycobacterium tuberculosis, UniProt P9WKK7). Nature of the data set: Mycobacterial isocitrate lyase (ICL) assay. It is filed as biochemical, M. tuberculosis H37Rv. Particulars: read-out: Percent inhibition of enzyme, M. ICL activity. On the procedure:
The compounds found potent in in vivo evaluation were assayed for inhibition of mycobacterial enzymes viz., isocitrate lyase, pantothenate synthetase and chorismate mutase.
Isocitrate lyase activity was assayed according to the protocol reported by Dixon and Kornberg (glyoxylate phenyl hydrazone formation) at 10 μM of the compounds.

In data set [18] the test system is E. coli. The data set is described as follows: Tube dilution MIC. The conditions noted are these: Escherichia coli, 24 h, read-out: MIC E. coli.
For data set [19], the system named is A. niger. Nature of the data set: microbe, parasite or virus in culture. The conditions noted are these: Aspergillus niger, 168 h, read-out: MIC A. niger.
The subject of data set [20] is C. albicans. Nature of the data set: MFC by subculturing. The class given is cell-based. The conditions noted are these: Candida albicans, read-out: MFC C. albicans. Summed up: as §1
In data set [21] the test system is A. niger. Nature of the data set: MFC by subculturing. The class given is cell-based. The conditions noted are these: Aspergillus niger, read-out: MFC A. niger. Put shortly:
as §1

Data set [22] relates to B. cereus. Nature of the data set: Tube dilution MIC. Particulars: Bacillus cereus, 24 h, read-out: MIC B. cereus.

The structures appear in SMILES notation. Converted amounts (≈) assume the structure as drawn.

Chain of mycobacterial isocitrate lyase (P9WKK7 whole entry): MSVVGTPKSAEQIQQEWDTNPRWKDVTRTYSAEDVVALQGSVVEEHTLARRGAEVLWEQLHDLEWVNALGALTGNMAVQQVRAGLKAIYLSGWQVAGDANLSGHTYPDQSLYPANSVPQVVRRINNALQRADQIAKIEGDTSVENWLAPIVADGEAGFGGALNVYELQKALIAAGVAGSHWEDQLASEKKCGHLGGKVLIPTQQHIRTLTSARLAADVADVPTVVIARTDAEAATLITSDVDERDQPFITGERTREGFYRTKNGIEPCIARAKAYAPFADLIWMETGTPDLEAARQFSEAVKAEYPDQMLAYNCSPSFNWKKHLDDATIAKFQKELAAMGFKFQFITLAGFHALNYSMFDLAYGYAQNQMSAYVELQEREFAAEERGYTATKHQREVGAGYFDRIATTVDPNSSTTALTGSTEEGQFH

With `O=C(CSc1nc2ccccc2n1C(=O)c1ccccc1)Nc1cccc(Br)c1` [Compound 8, 2-(1-Benzoyl-1H-benzo[d]imidazol-2-ylthio)-N-(3-bromophenyl)acetamide], the MIC in the data set on B. subtilis [1] is 27 µM (≈ 12.6 µg/mL); with S. typhi [7], 27 µM (≈ 12.6 µg/mL); in the data set on M. tuberculosis H37Rv [9], 12.5 µg/mL (≈ 26.8 µM); in the data set on S. aureus [12] it was 27 µM (≈ 12.6 µg/mL); in the data set with C. albicans [14], 13 µM (≈ 6.06 µg/mL); in the data set with E. coli [18], 27 µM (≈ 12.6 µg/mL). Further, the MIC in the data set on A. niger [19] and in the data set on B. cereus [22] was 27 µM (≈ 12.6 µg/mL) each time. Also, the MBC was over 50 µg/mL with S. typhi [2]; 50 µg/mL (≈ 107 µM) in the data set on S. aureus [3]; over 50 µg/mL in the data set with B. subtilis [4]; over 50 µg/mL with B. cereus [5]; over 50 µg/mL against E. coli [6]; 25 µg/mL (≈ 53.6 µM) with M. tuberculosis H37Rv [15]. Also, the IC50 in [8] is 68.6 µM; in data set [13] it was 107 µM. Further, the zone of inhibition at 50 µg/mL in data set [10] was over 20 mm. In [11], this compound gave an LD50 of 1.88 mg/kg. Moreover, the “MIC against Gram positive as well as Gram negative bacterial species” value in data set [16] was found to be 0.027 µM/ml. Besides, in [17], the inhibition at 10 µM was 59.5%. The MFC in the data set with C. albicans [20] was 50 µg/mL (≈ 107 µM); in the data set with A. niger [21], over 50 µg/mL.

The values are drawn from publication PMC5971037, “Synthesis and evaluation of antimicrobial, antitubercular and anticancer activities of 2-(1-benzoyl-1H-benzo[d]imidazol-2-ylthio)-N-substituted acetamides” (Chemistry Central Journal, 2018).
